≈ marks a conversion by molar mass, not a printed value.
How the values were obtained:
Staphylococcus aureus = experiment: Minimum inhibitory concentration, S. aureus; assay type: cell-based, Staphylococcus aureus subsp. aureus ATCC 29213; details: Mueller-Hinton Broth, 37° C., 72 h
Description: (§1) The MIC values of all compounds from both double-tailed series were determined for four Gram-positive (Staphylococcus aureus, Enterococcus faecalis, Streptococcus agalactiae, and Bacillus cereus) and two Gram-negative (Escherichia coli and Pseudomonas aeruginosa) strains, which are shown in Table 3.
(§2) The Gram-positive bacterial strains used tested were Staphylococcus aureus subsp. aureus ATCC® 29213™, Enterococcus faecalis ATCC® 29212™, Bacillus cereus, and Streptococcus agalactiae J48.^58 The Gram-negative bacterial strains used were Escherichia coli ATCC® 25922™ and Pseudomonas aeruginosa ATCC® 27853™. All strains were grown in 1× Mueller-Hinton Broth at 37° C. for 12-24 h. For the MIC and combination studies, bacterial suspensions were prepared by diluting overnight cultures to 5×10^6 CFU/mL in 2× Mueller-Hinton Broth, so that when amphiphile solutions are added the final broth strength is 1×.
(§3) The methods used to determine the MIC and MBC were performed as previously described and followed the standards set forth by the Clinical and Laboratory Standards Institute (See Ladow, J. E.; Warnock, D. C.; Hamill, K. M.; Simmons, K. L.; Davis, R. W.; Schwantes, C. R.; Flaherty, D. C.; Willcox, J. A. L.; Wilson-Henjum, K.; Caran, K. L.; Minbiole, K. P. C.; Seifert, K. Bicephalic amphiphile architecture affects antibacterial activity. Eur. J. Med. Chem. 2011, 46, 4219-4226 and P. A. Wayne Methods for dilution antimicrobial tests for bacteria that grow aerobically. 2009.). Briefly, compounds were serially diluted and 100 μL of each dilution were added to the wells of a 96-well flat-bottomed microtiter plate in triplicate. After adding 100 μL of the bacterial cell suspension, the plates were incubated at 37° C. for 72 h. […] The MIC was considered to be bactericidal if the MBC was the same concentration or one concentration higher in the dilution series as the MIC, per Motyl, M.; Dorso, K.; Barrett, J.; Giacobbe, R. Basic microbiological techniques used in antibacterial drug discovery. Curr. Protoc. Pharmacol. 2006, Chapter 13.

Enterococcus faecalis = experiment: Minimum inhibitory concentration, E. faecalis; assay type: cell-based, Enterococcus faecalis ATCC 29212; details: Mueller-Hinton Broth, 37° C., 72 h
Description: as §1, §2, §3

Streptococcus agalactiae = experiment: Minimum inhibitory concentration, S. agalactiae; assay type: cell-based, Streptococcus agalactiae J48; details: Mueller-Hinton Broth, 37° C., 72 h
Description: as §1, §2, §3

Pseudomonas aeruginosa [1] = experiment: Minimum inhibitory concentration, P. aeruginosa; assay type: cell-based, Pseudomonas aeruginosa ATCC 27853; details: Mueller-Hinton Broth, 37° C., 72 h
Description: as §1, §2, §3

Escherichia coli = experiment: Minimum inhibitory concentration, E. coli; assay type: cell-based, Escherichia coli ATCC 25922; details: Mueller-Hinton Broth, 37° C., 72 h
Description: as §1, §2, §3

[2] = Isothermal titration calorimetry: critical aggregation concentration and thermodynamics of aggregation; assay type: physicochemical
Description: Isothermal titration calorimetry (ITC) was used to determine the critical aggregation concentration (CAC) and the thermodynamic parameters at 37° C. associated with aggregate formation for each double-tailed amphiphile for the M-P and M-1 series, as shown in Table 1.
A Nano ITC was used to measure the heat change associated with the deaggregation of amphiphiles via power compensation. A concentrated aqueous solution of amphiphile (>>CAC) was titrated into a thermally controlled sample cell, initially containing pure water, in a series of discrete injections. Isothermal titration calorimetry was used to determine the critical aggregation concentration (CAC) and ΔHagg. Shown in FIG. 5 is the heat rate associated with each injection versus time for 9 (M-1,14,14). Shown in FIG. 6 is the integration of the heat per injection normalized by the number of moles of each injection versus the increasing concentration of amphiphile in the well. In FIG. 6, inset, CAC is determined by calculating the first derivative the heat curve.
During initial injections (Range I), measured heat changes are due to both the dilution of aggregates and deaggregation. This can be observed in the first 10 injections, where aggregates absorbed heat and disassociated into dissolved monomers. The heat change produced by each injection was approximately constant in this range. In Range II, injected aggregates don't fully dissociate, reducing the total absorbed heat for each subsequent injection. At concentrations well above the CAC (Range III), absorbed heat is attributed only to the dilution of aggregates and is approximately constant. […] CAC and thermodynamic data were not determined for the amphiphiles with the shortest tails [1 (M-P,8,8) and 6 (M-1,8,8)] because the heat evolved during injection was […] the threshold of the instrument.
The difference between the average heat of injections in Range I, representing the total heat due to the dilution of aggregates and deaggregation, and the average heat of injections in Range III, representing the heat due solely to the dilution of aggregates, gives the heat of deaggregation, ΔHdeagg. The ΔHdeagg for compound 9 (M-1,14,14) is 37 kJ/mol, corresponding to a heat of aggregate formation, ΔHagg, of −37 kJ/mol (ΔHagg=−ΔHdeagg).
The ΔGagg can be approximated for the aggregation of nonionic amphiphiles by the equation: ΔGagg=RT ln(CAC/55.5) (3)
where m is the concentration of counterions that associate with a aggregate and n is the number of monomers that associate to form an aggregate. […] BBA-Biomembranes. 2000, 1508, 69-85.)
The entropy of aggregation (ΔSagg) is dictated by a combination of entropic factors that favor or disfavor aggregate formation and can be approximated using the Gibbs-Helmholtz equation: ΔGagg=ΔHagg−TΔSagg (5)
CAC and ΔHagg were determined using a Nano-ITC (TA-Instruments). Prior to each experiment the sample cell was washed with dH2O (300 mL), ethanol (100 mL), dH2O (300 mL) and nanopure water (200 mL). Next, 950 μL of nanopure water was added to the sample cell. A concentrated aqueous solution (>>CAC) of amphiphile was prepared and equilibrated at 37° C. A 250 μL syringe was filled with the aqueous solution, and loaded into the Nano ITC. Multiple single injections in aliquots of 5 μL were injected into the sample cell with time intervals varying from 300 s to 1400 s. Samples were continuously stirred (300 rpm) throughout the titration. The Nano-Analyze program (TA-Instruments) was used to analyze the data. CAC and ΔHagg values reported are the average of two or more repeat experiments for each amphiphile.

Bacillus cereus = experiment: Minimum inhibitory concentration, B. cereus; assay type: cell-based; details: Mueller-Hinton Broth, 37° C., 72 h
Description: as §1, §2, §3

[3] = Isothermal titration calorimetry: critical aggregation concentration and thermodynamics of aggregation; assay type: physicochemical; details: 37° C., single-tailed M-1,1,n series; for CAC: ITC
Pseudomonas aeruginosa [4] = details: literature comparison values; cited from earlier work
[5] = ITC, 37° C., pure water, double-tailed M-P and M-1 series

Row | −TΔSmic ([2]; 37° C., Gibbs-Helmholtz equation, double-tailed series) [kcal/mol] | ΔGmic ([2]; 37° C., approximated with RT ln(CAC/55.5), double-tailed series) [kcal/mol] | CMC [2, 5] [mM] | ΔHmic [2, 5] [kcal/mol] | −TΔSagg term (sign, in words) ([2]; Table 1) | SMILES | MIC S. aureus (G+) (Staphylococcus aureus) [µM] | MIC E. faecalis (G+) (Enterococcus faecalis) [µM] | MIC S. agalactiae (G+) (Streptococcus agalactiae) [µM] | MIC P. aeruginosa (G−) (Pseudomonas aeruginosa [1]) [µM] | MIC E. coli (G−) (Escherichia coli) [µM] | MIC B. cereus (G+) (Bacillus cereus) [µM] | ΔHagg ([2]; ITC, 37° C.) [kcal/mol] | ΔGagg [3] [kcal/mol] | −TΔSagg [3] [kcal/mol] | CAC [3] [mM] | MIC against P. aeruginosa (comparison drugs) (Pseudomonas aeruginosa [4]) [µM]
1 | -5.26 | -7.89 | 0.16 | -13.1 | positive | CCCCCCCCCCCCCCCC[N+](C)(C)Cc1cc(C[N+](C)(C)C)cc(C[N+](C)(C)CCCCCCCCCCCCCCCC)c1.[Br-].[Br-].[Br-] [Compound 10] | 16 | 32 | 8 | >250 | 63 | 16 |  |  |  |  | 
2 |  |  |  |  |  | CCCCCCCCCCCCCC[N+](C)(C)Cc1cc(C[N+](C)(C)C)cc(C[N+](C)(C)C)c1.[Br-].[Br-].[Br-] [Compound S4] | 63 | 31 | 16 | >250 | 250 | 16 | -2.39 | -4.78 | -2.39 | 21 | 
3 |  |  |  |  |  | CCCCCCCCCCCCCCCC[N+](C)(C)Cc1cc(C[N+](C)(C)C)cc(C[N+](C)(C)C)c1.[Br-].[Br-].[Br-] [Compound S5] | 31 | 8 | 4 | >250 | 31 | 4 | -3.35 | -5.26 | -2.03 | 9.2 | 
4 |  |  |  |  |  | CCCCCCCCCCCCCCCCCC[N+](C)(C)Cc1cc(C[N+](C)(C)C)cc(C[N+](C)(C)C)c1.[Br-].[Br-].[Br-] [Compound S6] | 16 | 4 | 2 | 125 | 16 | 4 | -5.26 | -5.74 | -0.574 | 5.0 | 
5 |  |  |  |  |  | CCCCCCCCCCCCCCCCCCCC[N+](C)(C)Cc1cc(C[N+](C)(C)C)cc(C[N+](C)(C)C)c1.[Br-].[Br-].[Br-] [Compound S7] | 16 | 4 | 4 | 250 | 31 | 4 | -6.69 | -6.21 | 0.382 | 2.0 | 
6 |  |  |  |  |  | CCCCCCCCCCCCCCCCCCCCCC[N+](C)(C)Cc1cc(C[N+](C)(C)C)cc(C[N+](C)(C)C)c1.[Br-].[Br-].[Br-] [Compound S8] | >250 | >250 | >250 | >250 | 63 | >250 | -7.89 | -6.69 | 1.22 | 0.99 | 
7 |  |  |  |  |  | NC[C@H]1O[C@H](O[C@H]2[C@H](O)[C@@H](O[C@H]3O[C@H](CO)[C@@H](O)[C@H](N)[C@H]3O)[C@H](N)C[C@@H]2N)[C@H](N)C[C@@H]1O [tobramycin] |  |  |  |  |  |  |  |  |  |  | 6.4 (≈ 2.99 µg/mL)

— US10905118B2, “Triscationic amphiphile compounds, compositions, and methods for making same” (James Madison Innovations, Inc., priority 2014, dated 2021)
